Source: patent US8748389B2, “Treating cancer” (Theryte Limited, priority 2004, dated 2014)
Where a SMILES comes first, the peptide text is derived from it.

What was measured:
H441 cells = experiment: % viability by visual observation under phase contrast microscopy, 48 well, Experiment 2 first experiment; assay type: cell-based, human
Procedure: (§1) In a first experiment, MGHU-1 cells (a human bladder cancer cell line), were plated in 48 well tissue culture dishes in 0.2 ml complete Hams F12 tissue culture medium supplemented with 10% foetal calf serum. SKMEL-2 cells (a human malignant melanoma cell line), HX34 cells (a human malignant melanoma cell line) and H441 cells (a human lung cancer cell line) were plated under identical conditions. The cells were incubated at 37° C. in an atmosphere of 5% CO2.
(§2) After 24 h, the culture medium was then removed from each well and replaced by Hams F12 complete tissue culture medium (without foetal calf serum). The culture medium added to each well was supplemented with a peptide having the sequence set out in SEQ ID NO:1, SEQ ID NO:2 or SEQ ID NO:3 at a concentration of either 0.5, 1.0 or 5.0 mM in such a way that each cell line was exposed to each peptide at each concentration.
(§3) The cells were then cultured for two days. Foetal calf serum was then added to a final concentration of 10%, and the cells were left for a further 5 days. The % viability of the cells in each well was calculated by visual observation under phase contrast microscopy. The effect of the peptides having the amino acid sequences set out in SEQ ID NO:1 and SEQ ID NO:3 on the viability of the SK MeI-2, MGHU-1, HX34 and H441 cell lines is shown in FIG. 12. […] Where the concentration of SEQ ID NO:1 was 1.0 mM, 100% of MGHU-1 cells were killed. The viability of the other cell lines was not affected.

HX34 cells = experiment: as above; assay type: cell-based, human
Procedure: as §1, §2, §3

MGHU-1 cells = experiment: as above; assay type: cell-based, human
Procedure: as §1, §2, §3

SKMEL-2 cells = experiment: as above; assay type: cell-based, human
Procedure: as §1, §2, §3

[1] = system: short term primary culture of human fibroblasts; experiment: Experiment 2 further experiment, cells viewed under phase contrast microscopy; assay type: cell-based; conditions: for cytotoxicity to cultured primary cultures of normal human cells: conclusion of Experiment 2; for appearance of cells: 2.5 mM peptide, 2 days plus a further 7 days, FIG. 14
Procedure: In a further experiment, using a different batch of synthesized peptide, RT112 cells (a human bladder cancer cell line), HT29 cells (a human colon cancer cell line) and MGHU cells (a human bladder cancer cell line) were plated as described above. In parallel, a short term primary culture of human fibroblasts was plated in 48 well plates. After 24 h, the tissue culture medium was removed from each well and replaced with Hams F12 complete tissue culture medium (without foetal calf serum) supplemented with either 2.5 mM SEQ ID NO:1 or 2.5 mM SEQ ID NO:4. After culturing for 2 days, foetal calf serum was added to a concentration of 10%. The cells were then cultured for a further 7 days and viewed under phase contrast microscopy.
These peptides are not cytotoxic to cultured primary cultures of normal human cells.

[2] = system: non-cancerous fibroblasts; experiment: Subsequent experiments testing cancerous and non-cancerous cell lines; assay type: cell-based
[3] = system: normal non cancerous fibroblasts; experiment: Experiment 6, cell growth by daily phase-contrast microscopy, 96 well plates; assay type: cell-based
Procedure: (§4) Cancer cells and non-cancerous fibroblasts were separately seeded at 10^2 to 10^4 cells in 200 μl of Hams F12 tissue culture medium plus 10% fetal calf serum in 96 well plates and exposed to varying concentrations of a peptide having an amino acid sequence set out in SEQ ID NO: 17 ranging from 5.0 μM to 100 μM. Cell growth was studied by daily phase-contrast microscopy over 25 days.

[4] = system: MGHU-1 bladder cancer cells; experiment: as above; assay type: cell-based, human
Procedure: as §4

[5] = system: Normal non-cancerous fibroblasts; experiment: Experiments 3 and 4, 96 well plates, viability by phase contrast microscopy; assay type: cell-based
Procedure: (§5) Normal non-cancerous fibroblasts and cancer cells were exposed to the linear hexamer PRGPRP SEQ ID NO: 5 in 96 micro well plates using the same protocol as for SEQ. ID NO: 1 as previously described. The percent viability of the cells in each well was calculated by visual observation under phase contrast microscopy as previously described.
(§6) In order to define structure/function relationships different peptides were constructed SEQ ID NOS 5-16. Normal non-cancerous fibroblasts and cancer cells were exposed to 5 mM of these peptides in 96 well plates as previously described. The sequence of these peptides is listed below. Results were scored at 21 days.

cancer cells = experiment: as above; assay type: cell-based; conditions: summary statement
Procedure: as §5, §6

[6] = visual observation of cell density and viability
[7] = any concentration (0.5, 1.0 or 5.0 mM), day 7

Compound: CC(C)[C@H](NC(=O)[C@@H]1CCCN1C(=O)[C@H](CCCNC(=N)N)NC(=O)[C@@H](NC(=O)CNC(=O)[C@H](CCCNC(=N)N)NC(=O)[C@@H]1CCCN1C(=O)[C@@H](NC(=O)[C@@H](N)Cc1ccccc1)[C@@H](C)O)[C@@H](C)O)C(=O)N[C@@H](CCC(N)=O)C(=O)O [SEQ ID NO:2] (H-FTPRGTRPVQ-OH; N-terminus and C-terminus assumed)
- cytotoxicity (H441 cells; [6]): cytotoxic
- cytotoxicity compared with SEQ ID NO:1 (H441 cells; [6]): less cytotoxic
- cytotoxicity (HX34 cells; [6]): cytotoxic
- cytotoxicity compared with SEQ ID NO:1 (HX34 cells; [6]): less cytotoxic
- cytotoxicity (MGHU-1 cells; [6]): cytotoxic
- cytotoxicity compared with SEQ ID NO:1 (MGHU-1 cells; [6]): less cytotoxic
- cytotoxicity (SKMEL-2 cells; [6]): cytotoxic
- cytotoxicity compared with SEQ ID NO:1 (SKMEL-2 cells; [6]): less cytotoxic
- cytotoxicity to cultured primary cultures of normal human cells [1]: not cytotoxic

Compound: CC(C)[C@H](NC(=O)[C@H](CCCNC(=N)N)NC(=O)[C@H](Cc1ccccc1)NC(=O)[C@@H]1CCCN1C(=O)CNC(=O)[C@@H]1CCCN1)C(=O)N1CCC[C@H]1C(=O)N[C@@H](CCC(N)=O)C(=O)N1CCC[C@H]1C(=O)N[C@@H](CCCNC(=N)N)C(=O)O [SEQ ID NO:4, reference compound] (H-PGPFRVPQPR-OH)
- appearance of cells [1]: appear to be healthy

Compound: ATTEGTETVQ [SEQ ID NO:3, reference compound]
- viability (H441 cells; [7]): did not affect viability
- viability (HX34 cells; [7]): did not affect viability
- viability (MGHU-1 cells; [7]): did not affect viability
- viability (SKMEL-2 cells; [7]): did not affect viability

Compound: CC(C)[C@H](NC(=O)[C@@H]1CCCN1C(=O)[C@H](CCCNC(=N)N)NC(=O)[C@@H]1CCCN1C(=O)CNC(=O)[C@H](CCCNC(=N)N)NC(=O)[C@@H]1CCCN1C(=O)[C@@H]1CCCN1C(=O)[C@@H](N)Cc1ccccc1)C(=O)N[C@@H](CCC(N)=O)C(=O)O [SEQ ID NO:1] (H-FPPRGPRPVQ-OH; N-terminus and C-terminus assumed)
- appearance of cells [1]: appear to be healthy
- cytotoxicity to cultured primary cultures of normal human cells [1]: not cytotoxic
- cell killing ([2]; between days 20 and 25): specific killing of cancerous cells and not non-cancerous fibroblasts
- cell killing ([2]; within the first seven days, cells then recovered): non specific killing

Compound: cyclo-[PRGPRPVPRGPRPVPRGPRPV] (cyclic) [SEQ ID NO: 17]
- stimulation of fibroblasts ([3]; 10 days exposure, 10 μM, FIG. 18): marked non-cancerous fibroblast stimulation
- stimulation of fibroblasts ([3]; between 5 and 10 days after exposure, 5.0 μM to 100 μM): Marked stimulation
- cell morphology ([4]; after 20 days exposure, FIG. 19): marked loss of normal cell morphology
- cell morphology of cancerous cells ([4]; no complete detachment of dead cells from the plastic surface): loss of clear cell morphology

Compound: N=C(N)NCCC[C@H](NC(=O)[C@@H]1CCCN1)C(=O)NCC(=O)N1CCC[C@H]1C(=O)N[C@@H](CCCNC(=N)N)C(=O)N1CCC[C@H]1C(=O)O [SEQ ID NO: 5, PRGPRP] (H-PRGPRP-OH)
- state of fibroblasts ([5]; 21 days and beyond): remained healthy
- growth of non-cancerous cells tested ([5]; summary statement): non-inhibitory
- cytotoxicity to cancer cells tested (cancer cells): cytotoxic
